# Results reported in PubChem BioAssay (NCI).
#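 How tested: cells in 96-well plates exposed to compound for 48 hours at five concentrations. TGI: concentration producing complete growth inhibition.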
# Key:
# Assay in all cases: DTP human tumour cell line panel, 48 h
# [1] = test system: SF-295 CNS
# [2] = test system: SNB-19 CNS
# [3] = test system: DLD-1 colon
# [4] = test system: NCI-H460 lung
# [5] = test system: K-562 leukemia
# [6] = test system: HOP-62 NSCLC
# [7] = test system: 786-0 renal
# [8] = test system: HCT-15 colon
# [9] = test system: UACC-62 melanoma
# [10] = test system: LXFL 529 NSCLC
# [11] = test system: COLO 205 colon
# [12] = test system: M19-MEL melanoma
# [13] = test system: TK-10 renal
# [14] = test system: EKVX NSCLC
# [15] = test system: LOX IMVI melanoma
# [16] = test system: SK-MEL-28 melanoma
# [17] = test system: HCT-116 colon
# [18] = test system: SNB-78 CNS
# [19] = test system: KM20L2 colon
# [20] = test system: HL-60(TB) leukemia
# [21] = test system: SK-OV-3 ovarian
# [22] = test system: A549 NSCLC
# [23] = test system: HCC-2998 colon
# [24] = test system: SF-539 CNS
# [25] = test system: UO-31 renal
# [26] = test system: SW-620 colon
# [27] = test system: IGROV1 ovarian
# [28] = test system: SK-MEL-5 melanoma
# [29] = test system: KM12 colon
# [30] = test system: SR leukemia
# [31] = test system: NCI-H522 lung
# [32] = test system: OVCAR-4 ovarian
# [33] = test system: OVCAR-5 ovarian
# [34] = test system: MOLT-4 leukemia
# [35] = test system: MALME-3M melanoma
# [36] = test system: RPMI-8226 leukemia
# [37] = test system: OVCAR-3 ovarian
# [38] = test system: ACHN renal
# [39] = test system: DMS 114 small cell lung
# [40] = test system: NCI-H23 lung
# [41] = test system: A498 renal
# [42] = test system: HOP-92 NSCLC
# [43] = test system: SK-MEL-2 melanoma
# [44] = test system: NCI-H226 lung
# [45] = test system: CCRF-CEM leukemia
# [46] = test system: UACC-257 melanoma
# [47] = test system: CAKI-1 renal
# [48] = test system: SN12C renal
# [49] = test system: DMS 273 small cell lung
# [50] = test system: OVCAR-8 ovarian
# [51] = test system: HT29 colon
# [52] = test system: M14 melanoma
# [53] = test system: SF-268 CNS
# [54] = test system: U251 CNS
# [55] = test system: MDA-MB-435
# [56] = test system: SNB-75 CNS
# [57] = test system: MCF7 breast
# [58] = test system: RXF 393 renal
# [59] = test system: NCI/ADR-RES ovarian
# [60] = test system: PC-3 prostate
# [61] = test system: DU-145 prostate
# [62] = test system: HS 578T breast
# [63] = test system: T-47D breast
# [64] = test system: MDA-N
# [65] = test system: MDA-MB-231 breast
smiles,measurement,setting,value
O=C(c1nc2ccc(Cl)cc2[nH]c1=O)C(O)c1ccccc1 (stereo unspecified),TGI,[1],> 100 µM
same,TGI,[2],> 100 µM
same,TGI,[3],> 100 µM
same,TGI,[4],> 100 µM
same,TGI,[5],> 100 µM
same,TGI,[6],> 100 µM
same,TGI,[7],> 100 µM
same,TGI,[8],> 100 µM
same,TGI,[9],> 100 µM
same,TGI,[10],> 100 µM
same,TGI,[11],> 100 µM
same,TGI,[12],> 100 µM
same,TGI,[13],> 100 µM
same,TGI,[14],> 100 µM
same,TGI,[15],> 100 µM
same,TGI,[16],> 100 µM
same,TGI,[17],> 100 µM
same,TGI,[18],> 100 µM
same,TGI,[19],> 100 µM
same,TGI,[20],68.8 µM
same,TGI,[21],> 100 µM
same,TGI,[22],> 100 µM
same,TGI,[23],> 100 µM
same,TGI,[24],> 100 µM
same,TGI,[25],> 100 µM
same,TGI,[26],> 100 µM
same,TGI,[27],> 100 µM
same,TGI,[28],> 100 µM
same,TGI,[29],> 100 µM
same,TGI,[30],> 100 µM
same,TGI,[31],> 100 µM
same,TGI,[32],> 100 µM
same,TGI,[33],> 100 µM
same,TGI,[34],> 100 µM
same,TGI,[35],> 100 µM
same,TGI,[36],> 100 µM
same,TGI,[37],> 100 µM
same,TGI,[38],> 100 µM
same,TGI,[39],> 100 µM
same,TGI,[40],> 100 µM
same,TGI,[41],> 100 µM
same,TGI,[42],> 100 µM
same,TGI,[43],> 100 µM
same,TGI,[44],> 100 µM
same,TGI,[45],25.4 µM
same,TGI,[46],> 100 µM
same,TGI,[47],> 100 µM
same,TGI,[48],> 100 µM
same,TGI,[49],> 100 µM
same,TGI,[50],> 100 µM
same,TGI,[51],> 100 µM
same,TGI,[52],> 100 µM
same,TGI,[53],> 100 µM
CCCN=Cc1c(O)c(O)c(C(C)C)c2cc(C)c(-c3c(C)cc4c(C(C)C)c(O)c(O)c(C=NCCC)c4c3O)c(O)c12,TGI,[1],> 24.7 µM
same,TGI,[2],> 100 µM
same,TGI,[4],> 61.1 µM
same,TGI,[5],> 82.7 µM
same,TGI,[6],> 77.4 µM
same,TGI,[54],44.8 µM
same,TGI,[7],39.3 µM
same,TGI,[8],48.1 µM
same,TGI,[55],> 100 µM
same,TGI,[10],14.7 µM
same,TGI,[11],> 32.3 µM
same,TGI,[12],20.1 µM
same,TGI,[13],> 100 µM
same,TGI,[56],> 100 µM
same,TGI,[57],71.1 µM
same,TGI,[14],> 100 µM
same,TGI,[15],24.5 µM
same,TGI,[16],> 78.3 µM
same,TGI,[58],16.5 µM
same,TGI,[17],14.3 µM
same,TGI,[18],13.4 µM
same,TGI,[59],> 100 µM
same,TGI,[19],> 100 µM
same,TGI,[20],> 23.6 µM
same,TGI,[21],> 30.8 µM
same,TGI,[60],62.2 µM
same,TGI,[22],> 100 µM
same,TGI,[61],> 100 µM
same,TGI,[23],44.3 µM
same,TGI,[24],> 28.8 µM
same,TGI,[25],22.6 µM
same,TGI,[26],> 100 µM
same,TGI,[27],> 100 µM
same,TGI,[28],49.1 µM
same,TGI,[29],> 32.6 µM
same,TGI,[30],> 100 µM
same,TGI,[31],5.73 µM
same,TGI,[32],> 100 µM
same,TGI,[33],> 50.3 µM
same,TGI,[62],> 100 µM
same,TGI,[34],> 70.1 µM
same,TGI,[36],> 100 µM
same,TGI,[37],> 24.4 µM
same,TGI,[38],> 30.7 µM
same,TGI,[39],4.54 µM
same,TGI,[40],> 81.9 µM
same,TGI,[41],65.3 µM
same,TGI,[63],> 100 µM
same,TGI,[64],> 100 µM
same,TGI,[42],8.51 µM
same,TGI,[43],7.44 µM
same,TGI,[44],47.8 µM
same,TGI,[45],13.4 µM
same,TGI,[46],> 40.1 µM
same,TGI,[47],> 100 µM
same,TGI,[48],93.6 µM
same,TGI,[65],> 100 µM
same,TGI,[50],> 100 µM
same,TGI,[51],> 24.9 µM
same,TGI,[52],> 21 µM
same,TGI,[53],> 100 µM
COC1=C(OC)C(O)(c2ccccc2)C1=O (stereo unspecified),TGI,[1],> 100 µM
same,TGI,[2],> 100 µM
same,TGI,[4],> 100 µM
same,TGI,[6],> 100 µM
same,TGI,[54],> 100 µM
same,TGI,[12],> 100 µM
same,TGI,[13],85.7 µM
same,TGI,[14],> 100 µM
same,TGI,[16],> 100 µM
same,TGI,[58],> 100 µM
same,TGI,[18],> 100 µM
same,TGI,[20],> 100 µM
same,TGI,[21],> 100 µM
same,TGI,[22],> 100 µM
same,TGI,[25],> 100 µM
same,TGI,[27],> 100 µM
same,TGI,[29],> 100 µM
same,TGI,[30],> 100 µM
same,TGI,[31],> 100 µM
same,TGI,[33],> 100 µM
same,TGI,[34],> 100 µM
same,TGI,[38],> 100 µM
same,TGI,[40],> 100 µM
same,TGI,[41],> 100 µM
same,TGI,[42],> 100 µM
same,TGI,[45],> 100 µM
same,TGI,[46],> 100 µM
same,TGI,[49],> 100 µM
same,TGI,[50],> 100 µM
same,TGI,[51],> 100 µM
same,TGI,[52],> 100 µM
same,TGI,[53],> 100 µM
N#Cc1ccccc1NC(=O)/C(=N\Nc1ccc([N+](=O)[O-])cc1)C1C(=O)NC(=O)NC1=O,TGI,[2],> 100 µM
same,TGI,[3],> 100 µM
same,TGI,[4],> 100 µM
same,TGI,[5],> 100 µM
same,TGI,[6],> 100 µM
same,TGI,[54],> 100 µM
same,TGI,[7],> 100 µM
same,TGI,[8],> 100 µM
same,TGI,[9],> 100 µM
same,TGI,[10],> 100 µM
same,TGI,[11],> 100 µM
same,TGI,[12],> 100 µM
same,TGI,[13],> 100 µM
same,TGI,[56],> 100 µM
same,TGI,[14],> 100 µM
same,TGI,[15],> 100 µM
same,TGI,[16],> 100 µM
same,TGI,[58],> 100 µM
same,TGI,[17],> 100 µM
same,TGI,[18],> 100 µM
same,TGI,[19],> 100 µM
same,TGI,[20],> 100 µM
same,TGI,[21],> 100 µM
same,TGI,[22],> 100 µM
same,TGI,[23],> 100 µM
same,TGI,[24],> 100 µM
same,TGI,[25],> 100 µM
same,TGI,[26],> 100 µM
same,TGI,[27],> 100 µM
same,TGI,[28],> 100 µM
same,TGI,[29],> 100 µM
same,TGI,[31],> 100 µM
same,TGI,[32],> 100 µM
same,TGI,[33],> 100 µM
same,TGI,[34],> 100 µM
same,TGI,[35],> 100 µM
same,TGI,[36],> 100 µM
same,TGI,[37],> 100 µM
same,TGI,[38],> 100 µM
same,TGI,[39],> 100 µM
same,TGI,[40],> 100 µM
same,TGI,[41],> 100 µM
same,TGI,[42],74.8 µM
same,TGI,[43],> 100 µM
same,TGI,[45],> 100 µM
same,TGI,[46],> 100 µM
same,TGI,[47],> 100 µM
same,TGI,[50],> 100 µM
same,TGI,[52],> 100 µM
same,TGI,[53],> 100 µM
CC1CCC(=O)NCCCCC(=O)N1 (stereo unspecified),TGI,[1],> 100 µM
same,TGI,[2],> 100 µM
same,TGI,[3],> 100 µM
same,TGI,[4],> 100 µM
same,TGI,[5],> 100 µM
same,TGI,[6],> 100 µM
same,TGI,[54],> 100 µM
same,TGI,[7],> 100 µM
same,TGI,[9],> 100 µM
same,TGI,[10],> 100 µM
same,TGI,[11],> 100 µM
same,TGI,[12],> 100 µM
same,TGI,[13],> 100 µM
same,TGI,[56],> 100 µM
same,TGI,[14],> 100 µM
same,TGI,[15],> 100 µM
same,TGI,[16],> 100 µM
same,TGI,[58],> 100 µM
same,TGI,[17],> 100 µM
same,TGI,[18],> 100 µM
same,TGI,[19],> 100 µM
same,TGI,[20],> 100 µM
same,TGI,[21],> 100 µM
same,TGI,[22],> 100 µM
same,TGI,[23],> 100 µM
same,TGI,[24],> 100 µM
same,TGI,[25],> 100 µM
same,TGI,[26],> 100 µM
same,TGI,[27],> 100 µM
same,TGI,[28],> 100 µM
same,TGI,[29],> 100 µM
same,TGI,[30],> 100 µM
same,TGI,[31],> 100 µM
same,TGI,[32],> 100 µM
same,TGI,[33],> 100 µM
same,TGI,[34],> 100 µM
same,TGI,[35],> 100 µM
same,TGI,[36],> 100 µM
same,TGI,[37],> 100 µM
same,TGI,[38],> 100 µM
same,TGI,[39],> 100 µM
same,TGI,[40],> 100 µM
same,TGI,[41],> 100 µM
same,TGI,[42],> 100 µM
same,TGI,[43],> 100 µM
same,TGI,[44],> 100 µM
same,TGI,[45],> 100 µM
same,TGI,[46],> 100 µM
same,TGI,[47],> 100 µM
same,TGI,[48],> 100 µM
same,TGI,[49],> 100 µM
same,TGI,[50],> 100 µM
same,TGI,[51],> 100 µM
same,TGI,[52],> 100 µM
same,TGI,[53],> 100 µM
